Source: BigSolDB 2.1

O=C(O)CNCP(=O)(O)O
solubility (mole fraction) (in water, 293.67 K): 0.00112
solubility (mole fraction) (in water, 302.65 K): 0.0014
solubility (mole fraction) (in water, 311.95 K): 0.00174
solubility (mole fraction) (in water, 317.15 K): 0.00202
solubility (mole fraction) (in water, 322.15 K): 0.00226
solubility (mole fraction) (in water, 327 K): 0.0025
solubility (mole fraction) (in water, 332.35 K): 0.00285

C1CN2CN3CCN(CN1C3)C2
solubility (mole fraction) (in water, 275 K): 0.0905
solubility (mole fraction) (in water, 277 K): 0.0925
solubility (mole fraction) (in water, 279 K): 0.0946
solubility (mole fraction) (in water, 283 K): 0.0999
solubility (mole fraction) (in water, 288 K): 0.105
solubility (mole fraction) (in water, 293 K): 0.109
solubility (mole fraction) (in water, 298 K): 0.113
solubility (mole fraction) (in water, 303 K): 0.119

Nc1cc(Cl)nnc1Cl
solubility (mole fraction) (in ethanol, 303.15 K): 0.0171
solubility (mole fraction) (in ethanol, 305.65 K): 0.0179
solubility (mole fraction) (in ethanol, 308.15 K): 0.0185
solubility (mole fraction) (in ethanol, 310.65 K): 0.0192
solubility (mole fraction) (in ethanol, 313.15 K): 0.0202
solubility (mole fraction) (in ethanol, 315.65 K): 0.0212
solubility (mole fraction) (in ethanol, 318.15 K): 0.022
solubility (mole fraction) (in ethanol, 320.65 K): 0.023
solubility (mole fraction) (in ethanol, 323.15 K): 0.024

O=C(O)c1ccccc1O
solubility (mole fraction) (in 1,4-dioxane, 298.15 K): 0.261
solubility (mole fraction) (in PEG-300, 298.15 K): 0.493
solubility (mole fraction) (in ethanol, 298.15 K): 0.145
solubility (mole fraction) (in ethyl acetate, 298.15 K): 0.138
solubility (mole fraction) (in methanol, 298.15 K): 0.122
solubility (mole fraction) (in water, 298.15 K): 0.0003

O=[N+]([O-])c1ccc(N/N=C/c2ccc[nH]2)c([N+](=O)[O-])c1
solubility (mole fraction) (in water, 298.15 K): 1.6e-08

COc1ccc([C@@H]2CC(=O)c3c(O)cc(O[C@@H]4O[C@H](CO[C@@H]5O[C@@H](C)[C@H](O)[C@@H](O)[C@H]5O)[C@@H](O)[C@H](O)[C@H]4O)cc3O2)cc1O
solubility (mole fraction) (in n-propanol, 293.15 K): 0.000142
solubility (mole fraction) (in n-propanol, 298.15 K): 0.000166
solubility (mole fraction) (in n-propanol, 303.15 K): 0.00019
solubility (mole fraction) (in n-propanol, 308.15 K): 0.000218
solubility (mole fraction) (in n-propanol, 313.15 K): 0.000252
solubility (mole fraction) (in n-propanol, 318.15 K): 0.000289
solubility (mole fraction) (in n-propanol, 323.15 K): 0.000329
solubility (mole fraction) (in n-propanol, 328.15 K): 0.000375
solubility (mole fraction) (in n-propanol, 333.15 K): 0.000425

CCCCC
solubility (mole fraction) (in water, 286.65 K): 1.1e-05
solubility (mole fraction) (in water, 295.45 K): 1.03e-05

O=c1[nH]cc(C(F)(F)F)c(=O)[nH]1
solubility (mole fraction) (in water, 298.15 K): 0.00268

C[C@@H]1CC[C@H]2[C@@H](C)C(=O)O[C@@H]3O[C@@]4(C)CC[C@@H]1[C@]32OO4
solubility (mole fraction) (in ethanol, 278.2 K): 0.000998
solubility (mole fraction) (in ethanol, 286.2 K): 0.00181
solubility (mole fraction) (in ethanol, 303.2 K): 0.00297
solubility (mole fraction) (in ethanol, 313.2 K): 0.00457
solubility (mole fraction) (in ethanol, 323.2 K): 0.00801
solubility (mole fraction) (in ethanol, 343.2 K): 0.0159

CC(C)(C)C(=O)OCOP(=O)(COCCn1cnc2c(N)ncnc21)OCOC(=O)C(C)(C)C
solubility (mole fraction) (in acetone, 298.15 K): 0.0662
solubility (mole fraction) (in dichloromethane, 298.15 K): 0.175
solubility (mole fraction) (in diisopropyl ether, 298.15 K): 3.71e-05
solubility (mole fraction) (in ethanol, 298.15 K): 0.0341
solubility (mole fraction) (in ethyl acetate, 298.15 K): 0.0263
solubility (mole fraction) (in isopropanol, 298.15 K): 0.0252

Cc1ccccc1
solubility (mole fraction) (in water, 295.7 K): 0.000112

c1ccc(-c2cnc(-c3ccccc3)o2)cc1
solubility (mole fraction) (in acetone, 298.15 K): 0.29
solubility (mole fraction) (in ethanol, 298.15 K): 0.04
solubility (mole fraction) (in water, 298.15 K): 1.41e-07

O=C(O)[C@@H]1C[C@@H](O)CN1
solubility (mole fraction) (in water, 293.15 K): 0.0483
solubility (mole fraction) (in water, 298.15 K): 0.0499
solubility (mole fraction) (in water, 303.15 K): 0.0525
solubility (mole fraction) (in water, 308.15 K): 0.0551
solubility (mole fraction) (in water, 313.15 K): 0.0585
solubility (mole fraction) (in water, 318.15 K): 0.0614

Cc1c(O)c(=O)ccn1C
solubility (mole fraction) (in NMP, 298.2 K): 0.002
solubility (mole fraction) (in PEG-400, 298.2 K): 0.00864
solubility (mole fraction) (in ethanol, 298.2 K): 0.0014
solubility (mole fraction) (in ethylene glycol, 298.2 K): 0.00737
solubility (mole fraction) (in propylene glycol, 298.2 K): 0.00563

C[C@@H](O)[C@H]1C(=O)N2C(C(=O)[O-])=C(SC3Cn4cnc[n+]4C3)[C@H](C)[C@H]12 (stereo not given in full)
solubility (mole fraction) (in water, 283.15 K): 0.000323
solubility (mole fraction) (in water, 288.15 K): 0.000367
solubility (mole fraction) (in water, 293.15 K): 0.000413
solubility (mole fraction) (in water, 298.15 K): 0.000463
solubility (mole fraction) (in water, 303.15 K): 0.000521
solubility (mole fraction) (in water, 308.15 K): 0.000584
solubility (mole fraction) (in water, 313.15 K): 0.000649
solubility (mole fraction) (in water, 318.15 K): 0.000721
solubility (mole fraction) (in water, 323.15 K): 0.000807

O=C(O)c1ccc(C(=O)O)c(C(=O)O)c1
solubility (mole fraction) (in acetic acid, 313.2 K): 0.00168
solubility (mole fraction) (in acetic acid, 323.2 K): 0.00311
solubility (mole fraction) (in acetic acid, 333.2 K): 0.0048
solubility (mole fraction) (in acetic acid, 343.2 K): 0.00676
solubility (mole fraction) (in acetic acid, 353.2 K): 0.0087
solubility (mole fraction) (in acetic acid, 363.2 K): 0.0106
